Source: patent publication US6262084A, “Compounds that inhibit the binding of integrins to their receptors” (Texas Biotechnology Corporation, priority 1999, dated 2001)

Molecular target: T1, α4β1 integrin (Homo sapiens, UniProt P05556+P13612)
T1 construct: Ramos cells fluorescently labeled with calcein; endogenous in cells; host or cells: Ramos cells
Assay: Inhibition of adhesion of calcein-labeled Ramos cells to CS1 (fibronectin) peptide-conjugated ovalbumin
Assay type: cell-based
Details: Table 1; for inhibition at 100 µM: Ramos, compound at a concentration of 100 μM, read-out: % A (percent inhibition of cell adhesion); for IC50: dose required to give 50% inhibition, Ramos cell adhesion to CS1-ovalbumin, 30 minutes at 37° C
Procedure: The ability of compounds of the present invention to inhibit binding is described in detail hereinafter in the Examples by a procedure in which a 26-amino acid peptide containing the CS1 sequence of fibroncctin with an N-terminal Cys was coupled to maleimide activated ovalbumin. Ovalbumin and CS1 conjugated ovalbumin were coated onto 96-well polystyrene plates at 5 μg/ml in TBS (50 mM Tris, pH 7.5; 150 mM NaCl) at 4° C. for 16 hours. The plates were washed three times with TBS and blocked with TBS containing 3% BSA at room temperature for 4 hours. Blocked plates were washed three times in binding buffer (TBS; 1 mM MgCl2; 1 mM CaCl2; 1 mM MnCl2) prior to assay. Ramos cells fluorescently labeled with calcein AMC-3099 were resuspended in binding buffer (10^7 cells/ml) and diluted 1:2 with same buffer with or without compound. The cells were added immediately to the wells (2.5×10^5 cells/well) and incubated for 30 minutes at 37° C. Following three washes with binding buffer, adherent cells were lysed and quantitated using a fluorometer.
IC50 is defined as the dose required to give 50% inhibition. The lower the IC50 value and the greater the percentage of inhibition, the more efficient the compound is at prevention of cell adhesion. A stands for inhibition in Table 1, and the percent inhibition indicates the inhibition of cell adhesion when compound is included in the assay at a concentration of 100 μM.

T1 sequence (P13612 34-1032): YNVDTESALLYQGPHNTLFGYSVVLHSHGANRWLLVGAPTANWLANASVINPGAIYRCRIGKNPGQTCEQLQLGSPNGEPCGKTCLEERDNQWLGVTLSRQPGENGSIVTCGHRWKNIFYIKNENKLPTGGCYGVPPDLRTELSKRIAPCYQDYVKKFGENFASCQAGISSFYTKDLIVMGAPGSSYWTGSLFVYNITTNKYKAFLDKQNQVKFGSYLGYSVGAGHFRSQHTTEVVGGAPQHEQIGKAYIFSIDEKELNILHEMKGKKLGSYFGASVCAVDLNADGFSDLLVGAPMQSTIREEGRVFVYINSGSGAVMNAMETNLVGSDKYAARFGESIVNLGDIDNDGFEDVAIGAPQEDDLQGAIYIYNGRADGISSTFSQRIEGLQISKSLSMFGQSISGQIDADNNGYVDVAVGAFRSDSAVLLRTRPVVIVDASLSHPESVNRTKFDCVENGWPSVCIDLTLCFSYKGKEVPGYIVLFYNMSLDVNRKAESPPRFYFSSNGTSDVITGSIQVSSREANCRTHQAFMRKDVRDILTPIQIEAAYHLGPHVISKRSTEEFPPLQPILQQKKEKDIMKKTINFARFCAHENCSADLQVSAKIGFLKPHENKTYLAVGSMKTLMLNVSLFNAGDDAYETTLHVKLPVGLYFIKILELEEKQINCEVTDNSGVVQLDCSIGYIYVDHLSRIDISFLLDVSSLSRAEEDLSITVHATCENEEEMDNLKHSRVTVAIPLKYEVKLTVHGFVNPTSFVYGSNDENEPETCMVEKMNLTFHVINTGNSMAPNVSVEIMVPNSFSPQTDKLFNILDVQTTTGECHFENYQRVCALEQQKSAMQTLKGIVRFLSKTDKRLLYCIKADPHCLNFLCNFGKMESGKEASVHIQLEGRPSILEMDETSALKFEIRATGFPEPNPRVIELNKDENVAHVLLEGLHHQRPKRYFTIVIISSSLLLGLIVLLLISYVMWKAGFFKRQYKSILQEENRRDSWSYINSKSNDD
T1 sequence (P05556 21-798): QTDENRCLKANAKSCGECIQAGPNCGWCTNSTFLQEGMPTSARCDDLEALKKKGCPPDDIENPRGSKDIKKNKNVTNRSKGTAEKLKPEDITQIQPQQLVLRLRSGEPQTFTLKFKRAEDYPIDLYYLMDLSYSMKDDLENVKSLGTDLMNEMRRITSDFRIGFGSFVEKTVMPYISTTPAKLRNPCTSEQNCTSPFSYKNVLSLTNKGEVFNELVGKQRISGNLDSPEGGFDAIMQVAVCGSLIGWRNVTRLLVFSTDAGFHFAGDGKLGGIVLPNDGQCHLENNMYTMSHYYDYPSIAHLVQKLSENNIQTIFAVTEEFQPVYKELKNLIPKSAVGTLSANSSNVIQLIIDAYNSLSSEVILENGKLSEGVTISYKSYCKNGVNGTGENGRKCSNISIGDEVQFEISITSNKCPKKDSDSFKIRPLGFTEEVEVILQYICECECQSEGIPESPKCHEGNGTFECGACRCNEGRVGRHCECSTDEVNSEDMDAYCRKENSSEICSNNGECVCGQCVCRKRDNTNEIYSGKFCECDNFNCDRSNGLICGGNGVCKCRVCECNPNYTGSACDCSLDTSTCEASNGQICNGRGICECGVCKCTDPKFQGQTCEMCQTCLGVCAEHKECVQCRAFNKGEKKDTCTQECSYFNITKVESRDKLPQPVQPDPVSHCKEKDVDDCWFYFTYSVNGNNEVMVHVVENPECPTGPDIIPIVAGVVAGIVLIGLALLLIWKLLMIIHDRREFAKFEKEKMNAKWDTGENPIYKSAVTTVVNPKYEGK

SMILES | inhibition at 100 µM [%] | IC50 [nM]
CCOC[C@@H](CSc1ccccc1)OC(=O)N[C@@H](CC(=O)O)c1ccc2c(c1)OCO2 [(3S)-3-(1,3-benzodioxol-5-yl)-3-{[({(1S)-2-ethoxy-1-[(phenylthio)methyl]ethyl}oxy)carbonyl]amino}propanoic acid] | 100 | 5000
CC(C)[C@@H](CSCCc1ccccc1)NC(=O)N[C@@H](CC(=O)O)c1ccc2c(c1)OCO2 [(3S)-3-(1,3-benzodioxol-5-yl)-3-{[({(1S)-2-methyl-1-[(phenethylsulfanyl)methyl]propyl}amino)carbonyl]amino}propanoic acid] | 98 | 20000
Cc1ccc(S(=O)(=O)NC[C@@H](CSc2ccccc2)NC(=O)N[C@@H](CC(=O)O)c2ccc3c(c2)OCO3)cc1 [(3S)-3-(1,3-benzodioxol-5-yl)-3-{[({(1S)-2-{[(4-methylphenyl)sulfonyl]amino}-1-[(phenylthio)methyl]ethyl}amino)carbonyl]amino}propanoic acid] | 98 | 10000
CSCC[C@@H](CSc1ccc(NC(=O)Nc2ccccc2C)cc1)NC(=O)N[C@@H](CC(=O)O)c1ccc2c(c1)OCO2 [(3S)-3-(1,3-benzodioxol-5-yl)-3-{[({(1S)-3-(methylsulfanyl)-1-[({4-[(2-toluidinocarbonyl)amino]phenyl}sulfanyl)methyl]propyl}amino)carbonyl]amino}propanoic acid] | 100 | 0.9
CCCS(=O)(=O)Nc1cccc(SC[C@H](CCSC)NC(=O)N[C@@H](CC(=O)O)c2ccc3c(c2)OCO3)c1 [(3S)-3-(1,3-benzodioxol-5-yl)-3-{[({(1S)-3-(methylthio)-1-[({3-[(propylsulfonyl)amino]phenyl}thio)methyl]propyl}amino)carbonyl]amino}propanoic acid] | 100 | 500
O=C(O)C[C@H](NC(=O)N[C@@H](CCCO)CSc1ccccc1)c1ccc2c(c1)OCO2 [(3S)-3-(1,3-benzodioxol-5-yl)-3-{[({(1S)-4-hydroxy-1-[(phenylthio)methyl]butyl}amino)carbonyl]amino}propanoic acid] | 100 | 2000
CC(C)C(NC(=O)N[C@@H](CC(=O)O)c1ccc2c(c1)OCO2)C(Sc1ccccc1)Sc1ccccc1 (stereo partly drawn) [(3S)-3-[({[1-{[bis-(phenylsulfanyl)]methyl}-2-methylpropyl]amino}carbonyl)amino]-3-[(3,4-methylenedioxy)phenyl]propanoic acid] | 95 | 35000
CSCC[C@@H](CSc1ccccc1N)NC(=O)N[C@@H](CC(=O)O)c1ccc2c(c1)OCO2 [(3S)-3-[({[(1S)-1-{[(2-aminophenyl)sulfanyl]methyl}-3-(methylsulfanyl)propyl]amino}carbonyl)amino]-3-(1,3-benzodioxol-5-yl)propanoic acid] | 100 | 300
CSCC[C@@H](CSc1cccc(N)c1)NC(=O)N[C@@H](CC(=O)O)c1ccc2c(c1)OCO2 [(3S)-3-[({[(1S)-1-{[(3-aminophenyl)thio]methyl}-3-(methylthio)propyl]amino}carbonyl)amino]-3-(1,3-benzodioxol-5-yl)propanoic acid] | 100 | 300
CSCC[C@@H](CSc1ccc(N)cc1)NC(=O)N[C@@H](CC(=O)O)c1ccc2c(c1)OCO2 [(3S)-3-[({[(1S)-1-{[(4-aminophenyl)sulfanyl]methyl}-3-(methylsulfanyl)propyl]amino}carbonyl)amino]-3-(1,3-benzodioxol-5-yl)propanoic acid] | 100 | 3000
C=CCOC[C@@H](CSc1ccccc1)NC(=O)N[C@@H](CC(=O)O)c1ccc2c(c1)OCO2 [(3S)-3-{[({(1S)-2-(allyloxy)-1-[(phenylthio)methyl]ethyl}amino)carbonyl]amino}-3-(1,3-benzodioxol-5-yl)propanoic acid] | 100 | 300
CSCC[C@@H](CSc1ccccc1)NC(=O)N[C@H](CSC)CC(=O)O [(3S)-4-(methylsulfanyl)-3-{[({(1S)-3-(methylsulfanyl)-1-[(phenylsulfanyl)methyl]propyl}amino)carbonyl]amino}butanoic acid] | 99 | 8000
COC(=O)NCCCC[C@H](NC(=O)N[C@@H](CC(=O)O)c1ccc2c(c1)OCO2)C(=O)NCc1nc2ccccc2[nH]1 [(9S,13S)-9-{[(1H-benzimidazol-2-ylmethyl)amino]carbonyl}-13-(1,3-benzodioxol-5-yl)-3,11-dioxo-2-oxa-4,10,12-triazapentadecan-15-oic acid] | 100 | 2000

More lines, in order of falling IC50, values ahead:

inhibition at 100 µM [%] | IC50 [nM] | SMILES
100 | 3000 | CSCC[C@@H](CSc1ccccc1)NC(=S)N[C@@H](CC(=O)O)c1ccc2c(c1)OCO2 [(3S)-3-(1,3-benzodioxol-5-yl)-3-{[({(1S)-3-(methylsulfanyl)-1-[(phenylsulfanyl)methyl]propyl}amino)carbothioyl]amino}propanoic acid]
100 | 3000 | CSCC[C@@H](CSc1ccc(NC(C)=O)cc1)NC(=O)N[C@@H](CC(=O)O)c1ccc2c(c1)OCO2 [(3S)-3-[({[(1S)-1-({[4-(acetylamino)phenyl]sulfanyl}methyl)-3-(methylsulfanyl)propyl]amino}carbonyl)amino]-3-(1,3-benzodioxol-5-yl)propanoic acid]
100 | 2000 | CC(C)C[C@@H](CSc1ccccc1)NC(=O)N[C@@H](CC(=O)O)c1ccc2c(c1)OCO2 [(3S)-3-(1,3-benzodioxol-5-yl)-3-{[({(1S)-3-methyl-1-[(phenylsulfanyl)methyl]butyl}amino)carbonyl]amino}propanoic acid]
100 | 2000 | COC(=O)NCCC[C@@H](CSc1ccccc1)NC(=O)N[C@@H](CC(=O)O)c1ccc2c(c1)OCO2 [(8S,12S)-12-(1,3-benzodioxol-5-yl)-3,10-dioxo-8-((phenylsulfanyl)methyl)-2-oxa-4,9,11-triazatetradecan-14-oic acid]
100 | 500 | CSCC[C@@H](CSc1ccc(NS(C)(=O)=O)cc1)NC(=O)N[C@@H](CC(=O)O)c1ccc2c(c1)OCO2 [(3S)-3-(1,3-benzodioxol-5-yl)-3-{[({(1S)-3-(methylsulfanyl)-1-[({4-[(methylsulfonyl)amino]phenyl}sulfanyl)methyl]propyl}amino)carbonyl]amino}propanoic acid]
100 | 300 | O=C(O)C[C@H](NC(=O)N[C@@H](CCSc1ccccc1)CSc1ccccc1)c1ccc2c(c1)OCO2 [(3S)-3-(1,3-benzodioxol-5-yl)-3-{[({(1S)-3-(phenylthio)-1-[(phenylthio)methyl]propyl}amino)carbonyl]amino}propanoic acid]
100 | 2 | CSCC[C@@H](CSc1cccc(NC(=O)Nc2ccccc2C)c1)NC(=O)N[C@@H](CC(=O)O)c1ccc2c(c1)OCO2 [(3S)-3-(1,3-benzodioxol-5-yl)-3-{[({(1S)-3-(methylsulfanyl)-1-[({3-[(2-toluidinocarbonyl)amino]phenyl}sulfanyl)methyl]propyl}amino)carbonyl]amino}propanoic acid]
